Reference: patent US12617777B2, “GPR84 antagonists and uses thereof” (Liminal BioSciences Limited, priority 2021, dated 2026)

Molecular target: T1, human GPR84 receptor (Homo sapiens, UniProt Q9NQS5)
T1 construct: host or cells: HEK293, transient transfection
Assay: Gαi biosensor BRET assay in HEK293 cells (antagonism of ZQ-16)
Type: cell-based
Details: for inhibition at 2 µM: HEK293, single concentration 2 μM (designated A); for IC50: HEK293 cells, antagonism of 200 nmol/L ZQ-16; for inhibition at 25 µM: HEK293, single concentration 25 μM (designated I); for inhibition at 10 µM: HEK293, single concentration 10 μM (designated F)
Method in brief: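 HEK293 cells transiently expressing human GPR84, Gαi2-Rluc8, GFP10-Gγ2 and Gβ1, in Tyrode's buffer pH 7.5. Compounds preincubated 5 min at 37° C, then 200 nmol/L ZQ-16 for 5 min at room temperature; coelenterazine 400A 5 μmol/L. BRET2 acceptor/donor ratio, background- and vehicle-corrected net BRET.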

T1 sequence (Q9NQS5 whole entry): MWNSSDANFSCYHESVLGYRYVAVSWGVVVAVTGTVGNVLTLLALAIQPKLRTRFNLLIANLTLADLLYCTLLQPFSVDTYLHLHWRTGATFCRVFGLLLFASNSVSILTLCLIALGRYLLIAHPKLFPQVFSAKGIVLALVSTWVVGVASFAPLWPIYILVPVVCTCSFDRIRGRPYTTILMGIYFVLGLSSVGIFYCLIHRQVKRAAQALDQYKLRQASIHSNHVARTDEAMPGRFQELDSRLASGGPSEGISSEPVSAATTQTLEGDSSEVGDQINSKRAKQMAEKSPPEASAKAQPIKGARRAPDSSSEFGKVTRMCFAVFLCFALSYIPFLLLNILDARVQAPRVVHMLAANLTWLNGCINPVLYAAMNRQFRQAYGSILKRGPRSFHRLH

Row | Structure (SMILES) | inhibition at 10 µM [%] | also measured
1 | CC1(C)COC(Cn2cc(-c3ccc(N4CC(C)(NCc5ccccn5)C4)cc3CC(F)(F)F)nn2)OC1 [Compound I-745] |  | inhibition at 2 µM: > 75%; IC50: 0.3 to 1 µM
2 | C(#CC1CC1)c1ccc(-c2cn(CC3CCCCO3)nn2)s1 (centres unmarked) [Compound I-38] |  | inhibition at 25 µM: 50 to 75%
3 | Cc1cc(N2CC3(CCNCC3)C2)ccc1-c1cn(CC2CCCCO2)nn1 (centres unmarked) [Compound I-154] | 25 to 50 | 
4 | Cc1cc(C#CC2CC2)ccc1-c1cn(Cc2ncccn2)nn1 [Compound I-262] | 50 to 75 | 
5 | Cc1cc(N2CCN(C(=O)c3ccccn3)CC2)ccc1-c1cn(CC2CCCCO2)nn1 (centres unmarked) [Compound I-534] | ≤ 25 | 
6 | Cc1cc(N2CC(CF)C2)ccc1-c1cn(CC2CCCCO2)nn1 (centres unmarked) [Compound I-544] | 25 to 50 | 
7 | Cc1cc(N2CCC(C)(C)C2)cnc1-c1cn(CC2CCCCO2)nn1 (centres unmarked) [Compound I-555] | ≤ 25 | 
8 | Cc1cc(-c2cn(CC3CCCCO3)nn2)nnc1C#CC1CC1 (centres unmarked) [Compound I-434] | ≤ 25 | 
9 | Cc1ccc(-c2cccc(-c3nnn(CC4CCCCO4)c3C)c2)cn1 (centres unmarked) [Compound I-95] | ≤ 25 | 
10 | Cc1cc(C#CC2CC2)cnc1-c1cn(Cc2ncccn2)nn1 [Compound I-453] | ≤ 25 | 
11 | Cc1nn(CC2CCCCO2)cc1-c1cccc(C#CC2CC2)c1 (centres unmarked) [Compound I-323] |  | inhibition at 25 µM: ≤ 25%
12 | Cc1cc(N2CCN(Cc3ccccn3)CC2)ccc1-c1cn(CC2CCCCO2)nn1 (centres unmarked) [Compound I-237] | > 75 | IC50: 1 to 3 µM
13 | Cc1cc(C#CCn2cc(-c3ccccc3)nn2)ccc1-c1cn(CC2CCCCO2)nn1 (centres unmarked) [Compound I-432, 1-(3-(3-methyl-4-(1-((tetrahydro-2H-pyran-2-yl)methyl)-1H-1,2,3-triazol-4-yl)phenyl)prop-2-ynyl)-4-phenyl-1H-1,2,3-triazole] | > 75 | IC50: 0.3 to 1 µM
14 | C(#CC1CC1)c1ccc(Cc2cn(CC3CCCCO3)nn2)cc1 (centres unmarked) [Compound I-298] | 25 to 50 | 
15 | Cc1cc(N2CC3(CCN(c4ccccn4)CC3)C2)ccc1-c1cn(CC2CCCCO2)nn1 (centres unmarked) [Compound I-567] | 50 to 75 | IC50: 1 to 3 µM
16 | Cc1ccc(C#CCNc2ccccc2)cc1-c1cn(CC2CCCCO2)nn1 (centres unmarked) [Compound I-178] | ≤ 25 | 
17 | Cc1ccc(C#CC2CC2)cc1-c1cn(Cc2ncccn2)nn1 [Compound I-293] |  | inhibition at 2 µM: > 75%
18 | Cc1ccc(OCc2ccccn2)cc1Cc1cn(CC2CCCCO2)nn1 (centres unmarked) [Compound I-444] | ≤ 25 | 
19 | C(#CC1CC1)c1ccc(-c2cn(CC3CCCCO3)nn2)c(N2CCOCC2)c1 (centres unmarked) [Compound I-198] | 25 to 50 | 
20 | Cc1cc(C#CC2CC2)ccc1-c1nn(CC2CCCCO2)c(=O)o1 (centres unmarked) [Compound I-15] | ≤ 25 | 
21 | Cc1ccc(C#CCN2CC(C)(C)C2)cc1Cc1cn(CC2CCCCO2)nn1 (centres unmarked) [Compound I-415] | 25 to 50 | 
22 | Cc1cc(N2CCCC(O)C2)ccc1-c1cn(CC2CCCCO2)nn1 (centres unmarked) [Compound I-450] | 25 to 50 | 
23 | Cc1cc(N2CCN(c3ccccn3)CC2)ccc1-c1cn(CC2CCCCO2)nn1 (centres unmarked) [Compound I-533] | ≤ 25 | 
24 | Cc1cc(C#CCNC(=O)OC(C)(C)C)cnc1-c1cn(CC2CCCCO2)nn1 (centres unmarked) [Compound I-538] | > 75 | IC50: 0.3 to 1 µM
25 | Cc1ccc(C#CC2CC2)cc1N(C)c1cn(CC2OCC(C)(C)CO2)nn1 [Compound I-761, N-(5-(cyclopropylethynyl)-2-methylphenyl)-1-((5,5-dimethyl-1,3-dioxan-2-yl)methyl)-N-methyl-1H-1,2,3-triazol-4-amine] |  | IC50: 0.3 to 1 µM
26 | COC(c1cccc(C#CCO)c1)c1cn(CC2CCCCO2)nn1 (centres unmarked) [Compound I-491] | ≤ 25 | 

Row | Structure (SMILES) | inhibition at 10 µM [%] | also measured
27 | CC(C)c1cc(C#CC2CC2)ccc1-c1cn(CC2CCOCC2)nn1 [Compound I-212] | ≤ 25 | 
28 | Cc1cc(OCC(C)(C)N(C)C)ccc1-c1cn(C[C@H]2CCCCO2)nn1 [Compound I-289] | 25 to 50 | 
29 | CC1(C)CN(CC#Cc2cnc(-c3cn(CC4OCC5(CCC5)O4)nn3)c(OC3CC3)c2)C1 (centres unmarked) [Compound I-764] |  | IC50: 0.3 to 1 µM
30 | Cc1cc(C#CCNc2ccncc2)ccc1-c1cn(CC2CCCCO2)nn1 (centres unmarked) [Compound I-122] | 25 to 50 | 
31 | CCc1cc(C#CC2CC2)cnc1-c1cn(CC2CCCCO2)nn1 (centres unmarked) [Compound I-220] | > 75 | IC50: 0.3 to 1 µM
32 | Cc1cc(N2CCN(Cc3cccnc3)CC2)ccc1-c1cn(CC2CCCCO2)nn1 (centres unmarked) [Compound I-578] | 50 to 75 | IC50: > 3 µM
33 | Cc1cc(N2CCCCC2)ccc1-c1cn(CC2CCCCO2)nn1 (centres unmarked) [Compound I-256] | ≤ 25 | 
34 | Cc1ccc(C#CC2CC2)cc1Cc1cn(CC2COc3ncccc3O2)nn1 (centres unmarked) [Compound I-552] |  | inhibition at 2 µM: 25 to 50%
35 | CC1(C)CN(c2ccc(-c3cn(CC4CCCCO4)nn3)c(Cl)c2)C1 (centres unmarked) [Compound I-254] | 25 to 50 | 
36 | Cc1cc(C#CC2CC2)cc(F)c1-c1cn(CC2CCCCO2)nn1 (centres unmarked) [Compound I-575] | > 75 | 
37 | Cc1cc(NC(=O)CC2CC2)ccc1-c1cn(CC2CCCCO2)nn1 (centres unmarked) [Compound I-358] |  | inhibition at 2 µM: ≤ 25%
38 | Cc1ccc(C#CC2CC2)cc1Cc1cn(C[C@H]2CCCCO2)nn1 [Compound I-587] | 50 to 75 | IC50: 0.3 to 1 µM
39 | C(#CC1CC1)c1ccc(-c2cnn(CC3CCCCO3)c2)cc1 (centres unmarked) [Compound I-317] |  | inhibition at 25 µM: ≤ 25%
40 | COCC#Cc1ccc(-c2nnn(CC3CCCCO3)c2C)cc1 (centres unmarked) [Compound I-244] | 25 to 50 | 
41 | CC1(C)COC(Cn2cc(-c3ccc(N4CC(C)(CO)C4)cc3CC(F)(F)F)nn2)C1 (centres unmarked) [Compound I-740] |  | inhibition at 2 µM: > 75%; IC50: ≤ 0.3 µM
42 | Cc1cc(N2CC3CCC2CN3Cc2ccccn2)ccc1-c1cn(CC2CCCCO2)nn1 (centres unmarked) [Compound I-550] | 50 to 75 | 
43 | Cc1cc(N2CCC(O)C2)ccc1-c1cn(CC2CCCCO2)nn1 (centres unmarked) [Compound I-436] | ≤ 25 | 
44 | Clc1cc(C#CC2CC2)cnc1-c1cn(CC2OCC3(CCC3)O2)nn1 (centres unmarked) [Compound I-806] |  | inhibition at 2 µM: > 75%
45 | Cc1cc(NS(C)(=O)=O)ccc1-c1cn(CC2CCCCO2)nn1 (centres unmarked) [Compound I-130] | ≤ 25 | 
46 | Cc1cc(C(=O)NCC2CC2)ccc1-c1cn(CC2CCCCO2)nn1 (centres unmarked) [Compound I-357] | 50 to 75 | 
47 | OCc1cc(C#CC2CC2)ccc1-c1cn(CC2CCCCO2)nn1 (centres unmarked) [Compound I-216] | ≤ 25 | 
48 | CO[C@@H](c1cn(C[C@@H]2CCCCO2)nn1)c1cc(C#CC2CC2)ccc1C [Compound I-513] |  | inhibition at 2 µM: 25 to 50%; IC50: > 2 µM
49 | Cc1ccc(N2CCN(Cc3ccccn3)CC2)cc1-c1cn(CC2CCCCO2)nn1 (centres unmarked) [Compound I-564] | ≤ 25 | 
50 | CC(c1cccc(C#CC2CC2)c1)c1cn(CC2CCCCO2)nn1 (centres unmarked) [Compound I-302] | > 75 | 
51 | Cc1ccc(-c2ccc(-c3ncn(CC4CCCCO4)c3C)cc2)cn1 (centres unmarked) [Compound I-340] | 25 to 50 | 

Continued, in another order:

Row | inhibition at 10 µM [%] | Structure (SMILES) | also measured
52 | 50 to 75 | COC(C)(c1cn(CC2CCCCO2)nn1)c1cc(C#CC2CC2)ccc1C (centres unmarked) [Compound I-680] | 
53 | 50 to 75 | CC(C)Oc1cc(C#CCNc2ccccn2)cnc1-c1cn(CC2CC(C)(C)CO2)nn1 (centres unmarked) [Compound I-606] | 
54 | 50 to 75 | COC(c1cn(CC2CCCCO2)nn1)c1cc(C#CC2CC2)ccc1C(F)(F)F (centres unmarked) [Compound I-655] | 
55 | > 75 | Cc1cc(C#CCn2cc(C3CC3)nn2)ccc1-c1cn(CC2CCCCO2)nn1 (centres unmarked) [Compound I-645] | 
56 | ≤ 25 | CC1(C)COC(Cn2cc(-c3ncc(C#CC4CC4)cc3C(F)F)nn2)OC1 [Compound I-736] | 
57 | > 75 | Cc1ccc(C#CC2CC2)cc1[S+]([O-])c1cn(CC2OCC(C)(C)CO2)nn1 (racemic) [Compound I-782, (RS)-4-((5-(cyclopropylethynyl)-2-methylphenyl)sulfinyl)-1-((5,5-dimethyl-1,3-dioxan-2-yl)methyl)-1H-1,2,3-triazole] | 
58 | > 75 | Cc1cc(N2CC(C)(OCc3ccccn3)C2)c(F)cc1-c1cn(CC2CCCCO2)nn1 (centres unmarked) [Compound I-731] | IC50: 0.3 to 1 µM
59 | ≤ 25 | CN(C)c1cc(N2CC3(COC3)C2)ccc1-c1cn(CC2OCC3(CC3)CO2)nn1 [Compound I-853] | 
60 | > 75 | Cc1ccc(C#CC2CC2)cc1C1(c2cn(CC3CCCCO3)nn2)OCCO1 (centres unmarked) [Compound I-604] | IC50: 1 to 3 µM
61 | ≤ 25 | Cc1cc(C#CC2CC2)ccc1-c1cn(CC2OCC(c3ccccc3)CO2)nn1 (centres unmarked) [Compound I-704] | 
62 | ≤ 25 | Cc1cc(OCC(F)(F)F)cnc1-c1cn(CC2OCC(C)(C)O2)nn1 (centres unmarked) [Compound I-639] | 
63 | ≤ 25 | COCC#Cc1cnc(-c2cn(CC3OCC(C)(C)CO3)nn2)c(OC(C)C)c1 [Compound I-837] | 
64 | 25 to 50 | COC(=O)NCC#Cc1ccc(-c2cn(CC3CCCCO3)nn2)c(C)c1 (centres unmarked) [Compound I-607] | 
65 | > 75 | Cc1cc(C#CCNC(=O)C(F)(F)F)cnc1-c1cn(CC2CCCCO2)nn1 (centres unmarked) [Compound I-843, 2,2,2-trifluoro-N-(3-(5-methyl-6-(1-((tetrahydro-2H-pyran-2-yl)methyl)-1H-1,2,3-triazol-4-yl)pyridin-3-yl)prop-2-yn-1-yl)acetamide] | 
66 | > 75 | CCc1cc(C#CCNc2ccccn2)cnc1-c1cn(C[C@H]2CCCCO2)nn1 [Compound I-658] | IC50: > 3 µM
67 | > 75 | CCc1cc(C#CCNC(=O)OC(C)C)ccc1-c1cn(CC2CCCCO2)nn1 (centres unmarked) [Compound I-598] | IC50: 1 to 3 µM
68 | ≤ 25 | CCOc1cc(C#CCOC)cnc1-c1cn(CC2OCC(C)(C)CO2)nn1 [Compound I-834] | IC50: ≤ 0.3 µM
69 | 50 to 75 | Cc1cc(N2CC(C)(C)C2)cnc1-c1cn(CC2CCCCO2)cn1 (centres unmarked) [Compound I-609] | IC50: > 3 µM
70 | > 75 | Cc1cc(N2CC(C)(CN(C)c3ccccn3)C2)ccc1-c1cn(CC2CCCCO2)nn1 (centres unmarked) [Compound I-675] | 
